Results reported in patent US20130053438A1, “PHARMACEUTICAL COMPOSITIONS COMPRISING LIGNANS AND THEIR DERIVATIVES FOR THE MEDICAL MANAGEMENT OF ANGIOGENESIS AND HYPOVASCULARITY” (Universitat Innsbruck, priority 2010, published 2013).
Several values for one entry are separate records, joined by “and”; a condition that tells them apart may be missing. Identical values can stand only once.

How the values were obtained:
[1] = system: wound closure in pigs (Deutsches Landschwein); assay: porcine model for time of wound closure, topical administration; type: in vivo, pig
Protocol: FIG. 9. […] N for control and Leoligin treated wounds is 5. […] Data assessment was conducted in a blinded manner.
For the large animal model 30-35 kg pigs (Deutsches Landschwein) was used. Animals were supplied by, kept, and experiments were performed at the Central Animal Testing Facility of the University of Innsbruck and the “Besondere Einrichtung für Biomedizinische Forschung” of the Medical University of Vienna. Pigs received a standard growth diet.
One hour prior to anaesthesia pigs received an intramuscular injection of 4 mg/kg Azaperon and 0.1 mg/kg Atropin. Full anaesthesia was achieved by intravenously applied 2-3 mg/kg Propofol and 15 mg Piritramid, followed by intubation of animals and ventilation with 30% O2. Muscle relaxation was achieved by an initial does of 8 mg Pancuronium and repetition with 0.2 mg/kg/h Pancuronium. Maintenance of anaesthesia was achieved by continuous infusion with 8-12 mg/kg/h Propofol and 15 mg Piritramid.
In the course of an experimental bypass surgery in the pig, after re-implantation of the graft (into the carotis artery) Leoligin (“Leo”) or NaCl control solution was added into the wound topically (the situs was filled with control solution (0.9% NaCl) or a solution containing leoligin at 100 μM. By optical inspection every 24 hours of blinded researchers the time to wound closure/healing was documented. Animals with infected wounds were excluded from the analysis.

[2] = system: venous bypass grafts; settings: prior art, Reisinger (2009); cited from earlier work
[3] = system: small muscle cells and endothelial cells; settings: prior art, Reisinger et al. (2009); cited from earlier work
[4] = system: human microvascular endothelial cells; assay: capillary (endothelial tube) formation on matrigel substrate; type: cell-based; settings: within 6 hrs of incubation, quantified by imaging software
Source text: (§1) In particular 5-methoxy-leoligin has been shown and exemplified in the appended examples as a potent activator of angiogenesis. […] Furthermore, the pro-angiogenic activity of 5-methoxy-leoligin has been tested in vivo in the chorioallantois membrane (CAM) assay of chicken embryos. […] These assays are recognized in the art to represent functional assays for in vitro and in vivo angiogenesis; see Methods in Endothelial cell biology, H G Augustin Ed.; 2004, Springer Lab Manual, ISBN 3-540-21397-X, Springer —Verlag Berlin, Heidelberg, N.Y..
Cells form tube-like structures between each other within 6 hrs of incubation. Those were quantified by an imaging software.

[5] = system: HUVECs; assay: angiogenic sprouting in a 3-D Collagen matrix (spheroid sprouting assay); type: cell-based; settings: after 24 h of stimulation
Source text: as §1
These sprouts were analyzed after 24 h of stimulation and “cumulative sprout length” (CSL) of each sprout was quantified in μm.

[6] = system: chorioallantois membrane (CAM) of chicken embryos; assay: chicken chorioallantoic membrane (CAM) assay; type: in vivo; settings: chicken embryo CAM, each group 5 eggs, p<0.05
Source text: as §1
Each group consists of 5 eggs.

[7] = system: endothelial cells; assay: wound scratch healing assay; type: cell-based; settings: 1 and 10 μM, 9 hours
Protocol: The upper two images show the migration of endothelial cells into scratch area without treatment (left side) an in the presence of Lag2 (right side). The two images at the bottom are the control images of the scratch size at 0 hours.

In the case of `C/C=C(/C)C(=O)OC[C@H]1[C@@H](Cc2ccc(OC)c(OC)c2)CO[C@@H]1c1ccc(OC)c(OC)c1` [leoligin, [(2S,3R,4R)-4-(3,4-dimethoxybenzyl)-2-(3,4-dimethoxyphenyl)tetrahydrofuran-3-yl]methyl (2Z)-2-methylbut-2-enoat], the “wound healing (in words)” value ([1]; leoligin 100 μM topical) is reported as “can successfully be used to promote wound healing”, the “time until wound closure after surgery, mean value” ([1]; leoligin 100 μM topical, N = 5) is reported as 19.4 days and the “time until wound closure after surgery, individual wounds” value ([1]; situs filled with solution containing leoligin at 100 μM, topical, inspection every 24 hours, blinded, listed as Leo) is reported as 19 days and 20 days and 16 days and 21 days (2×). The “effect on intimal hyperplasia of venous bypass grafts” value [2] was “inhibits intimal hyperplasia of venous bypass grafts” and the “induction of cell death” value [3] was “did not induce cell death”.

In the case of `C/C=C(/C)C(=O)OC[C@H]1[C@@H](Cc2ccc(OC)c(OC)c2)CO[C@@H]1c1cc(OC)c(OC)c(OC)c1` [5-methoxy-leoligin, [(2S,3R,4R)-4-(3,4-dimethoxybenzyl)-2-(3,4,5-trimethoxyphenyl)tetrahydrofuran-3-yl]methyl-(2Z)-2-methylbut-2-enoat], the “capillary formation (tube-like structures)” value [4] is reported as “significant increase in capillary formation”, the “capillary formation (tube-like structures)” value ([4]; listed as LaG2) is reported as “dose-depentently supported capillary formation” and the “number and length of angiogenic sprouts (cumulative sprout length)” value [5] is reported as “significantly enhanced both the length and number of angiogenic sprouts”. The “number and length of angiogenic sprouts (cumulative sprout length)” value ([5]; listed as LaG2) was “significant increase of sprout number and lengths”, the “vascular density / blood vessel formation” value [6] was “significantly increased the vascular density” and the “vascular density / blood vessel formation” value ([6]; listed as LaG2) was “dose-dependently supported embryonic blood vessel formation”. The “migration of endothelial cells into scratch area / wound healing” value [7] was “promotes the migration of endothelial cells into damaged tissue and stimulates wound healing”.
